# ChEMBL document CHEMBL5614428, “Synthesis and antibacterial activities of heterocyclic ring-fused 20(S)-protopanaxadiol derivatives” (Bioorg Med Chem, 2024)
# The source made the active and inactive calls. The rule behind the calls is not given here.
# Assays:
# Staphylococcus aureus [1] = assay: Antibacterial activity against methicillin-resistant Staphylococcus aureus USA300 infected in zebrafish assessed as increase in survival rate at 50 mg/kg,ip administration measured for 5 days relative to Vancomycin; assay type: functional, organism-based; conditions: time 5.0 day
# Staphylococcus aureus [2] = assay: Antibacterial activity against methicillin-resistant Staphylococcus aureus USA300 infected in zebrafish assessed as increase in survival rate at 25 mg/kg,ip administration measured for 5 days; assay type: functional, organism-based; conditions: time 5.0 day
# Staphylococcus aureus [3] = assay: Antibacterial activity against methicillin-resistant Staphylococcus aureus USA300 assessed as inhibition of bacterial growth incubated for 18 hrs by two fold serial dilution assay; assay type: functional
# Staphylococcus aureus [4] = assay: Antibacterial activity against methicillin-resistant Staphylococcus aureus XJ017 assessed as inhibition of bacterial growth incubated for 18 hrs by two fold serial dilution assay; assay type: functional
# Staphylococcus aureus [5] = assay: Antibacterial activity against methicillin-resistant Staphylococcus aureus NRS-70 assessed as inhibition of bacterial growth incubated for 18 hrs by two fold serial dilution assay; assay type: functional
# Staphylococcus aureus [6] = assay: Antibacterial activity against methicillin-resistant Staphylococcus aureus NRS-108 assessed as inhibition of bacterial growth incubated for 18 hrs by two fold serial dilution assay; assay type: functional
# Staphylococcus aureus [7] = assay: Antibacterial activity against methicillin-resistant Staphylococcus aureus XJ036 assessed as inhibition of bacterial growth incubated for 18 hrs by two fold serial dilution assay; assay type: functional
# [8] = Toxicity in Zebrafish at 25 to 75 mg/kg,ip administration measured upto 120 hrs; assay type: organism-based, Danio rerio; conditions: in vivo, dose 25-75 mg/kg
# Staphylococcus aureus [9] = assay: Antibacterial activity against methicillin-resistant Staphylococcus aureus NRS-271 assessed as inhibition of bacterial growth incubated for 18 hrs by two fold serial dilution assay; assay type: functional
# Staphylococcus aureus [10] = assay: Antibacterial activity against methicillin-resistant Staphylococcus aureus NRS-1 assessed as inhibition of bacterial growth incubated for 18 hrs by two fold serial dilution assay; assay type: functional
# Staphylococcus aureus [11] = assay: Antibacterial activity against Staphylococcus aureus Newman assessed as fold increase in inhibition of bacterial growth incubated for 18 hrs by two fold serial dilution assay relative to (S)-4-((1S,3aR,3bR,5aR,12aR,12bR,14R,14aR)-14-hydroxy-3a,3b,6,6,12a-pentamethyl-1,2,3,3a,3b,4,5,5a,6,7,12,12a,12b,13,14,14a-hexadecahydrocyclopenta[5,6]naphtho[2,1-b]carbazol-1-yl)pentane-1,4-diol; assay type: functional
# Staphylococcus aureus [12] = assay: Antibacterial activity against Staphylococcus aureus Newman assessed as inhibition of bacterial growth incubated for 18 hrs by two fold serial dilution assay; assay type: functional
# Staphylococcus aureus [13] = assay: Antibacterial activity against methicillin-resistant Staphylococcus aureus NRS-100 assessed as inhibition of bacterial growth incubated for 18 hrs by two fold serial dilution assay; assay type: functional
# Staphylococcus aureus [14] = assay: Antibacterial activity against methicillin-resistant Staphylococcus aureus USA300 assessed as fold increase in inhibition of bacterial growth incubated for 18 hrs by two fold serial dilution assay relative to (S)-4-((1S,3aR,3bR,5aR,13aR,13bR,15R,15aR)-15-hydroxy-3a,3b,6,6,13a-pentamethyl-2,3,3a,3b,4,5,5a,6,13,13a,13b,14,15,15a-tetradecahydro-1H-cyclopenta[5,6]naphtho[1,2-b]phenazin-1-yl)pentane-1,4-diol; assay type: functional
Structure (SMILES),Activity (Staphylococcus aureus [1]),Activity (Staphylococcus aureus [2]),MIC (Staphylococcus aureus [3]),MIC (Staphylococcus aureus [4]),MIC (Staphylococcus aureus [5]),MIC (Staphylococcus aureus [6]),MIC (Staphylococcus aureus [7]),Activity [8],MIC (Staphylococcus aureus [9]),MIC (Staphylococcus aureus [10]),fold change (FC) (Staphylococcus aureus [11]),MIC (Staphylococcus aureus [12]),MIC (Staphylococcus aureus [13]),fold change (FC) (Staphylococcus aureus [14])
CC1(C)c2nc3ccccc3nc2C[C@]2(C)[C@H]3C[C@@H](O)[C@@H]4[C@@H]([C@@](C)(O)CCC(=O)Nc5nccs5)CC[C@@]4(C)[C@]3(C)CC[C@@H]12,Active,Active,1 µg/mL,0.5 µg/mL,1 µg/mL,2 µg/mL,1 µg/mL,Non-Toxic,1 µg/mL,1 µg/mL,4,1 µg/mL,4 µg/mL,
CC1(C)c2nc3ccccc3nc2C[C@]2(C)[C@H]3C[C@@H](O)[C@@H]4[C@@H]([C@@](C)(O)CCC(N)=O)CC[C@@]4(C)[C@]3(C)CC[C@@H]12,,,4 µg/mL,4 µg/mL,4 µg/mL,4 µg/mL,4 µg/mL,,4 µg/mL,4 µg/mL,,4 µg/mL,4 µg/mL,2
